Data reported in paper PMC5218480 (PLoS ONE, 2017).

System: MV-4-11 cells
Assay: Gene expression microarray analysis (Affymetrix PrimeView) and GSEA
Assay type: cell-based, human
Parameters: RFU PODN (11730768_x_at) / Fold change /veh PODN (11730768_x_at) / RFU LINC00158 (11744669_a_at) / Fold change /veh LINC00158 (11744669_a_at) / RFU DUSP10 (11751237_a_at) / Fold change /veh DUSP10 (11751237_a_at) / RFU ID3 (11757404_x_at) / Fold change /veh ID3 (11757404_x_at) / RFU PLEKHG5 (11737974_s_at) / Fold change /veh PLEKHG5 (11737974_s_at) / RFU LRRC4B (11730491_at) / Fold change /veh LRRC4B (11730491_at) / RFU GIMAP4 (11747438_a_at) / Fold change /veh GIMAP4 (11747438_a_at) / RFU KRT8 (11758183_x_at) / Fold change /veh KRT8 (11758183_x_at) / RFU CNN1 (11734310_a_at) / Fold change /veh CNN1 (11734310_a_at) / RFU VPS37D (11726825_at) / Fold change /veh VPS37D (11726825_at) / RFU C10orf10 (11716522_x_at) / Fold change /veh C10orf10 (11716522_x_at) / RFU KIR2DL2 /// KIR2DL4 /// KIR2DL5A /// KIR2DL5B /// KIR2DS1 /// KIR2DS2 /// KIR2DS3 /// KIR2DS4 /// KIR3DL3 /// KIR3DL3 /// KIR3DS1 (11738374_at) / Fold change /veh KIR2DL2 /// KIR2DL4 /// KIR2DL5A /// KIR2DL5B /// KIR2DS1 /// KIR2DS2 /// KIR2DS3 /// KIR2DS4 /// KIR3DL3 /// KIR3DL3 /// KIR3DS1 (11738374_at) / RFU C1QL1 (11718748_at) / Fold change /veh C1QL1 (11718748_at) / RFU TMPRSS4 (11747572_a_at) / Fold change /veh TMPRSS4 (11747572_a_at) / RFU HAMP (11756126_x_at) / Fold change /veh HAMP (11756126_x_at) / RFU RNFT2 (11725882_a_at) / Fold change /veh RNFT2 (11725882_a_at) / RFU NR4A2 (11747474_a_at) / Fold change /veh NR4A2 (11747474_a_at) / RFU ABCC12 (11746883_a_at) / Fold change /veh ABCC12 (11746883_a_at) / RFU TMEM136 (11760407_x_at) / Fold change /veh TMEM136 (11760407_x_at) / RFU CLDN22 /// WWC2 (11732394_at) / Fold change /veh CLDN22 /// WWC2 (11732394_at) / RFU HLA-DPB1 (11760878_x_at) / Fold change /veh HLA-DPB1 (11760878_x_at) / RFU SPINT1 (11716480_a_at) / Fold change /veh SPINT1 (11716480_a_at) / RFU GAP43 (11754022_s_at) / Fold change /veh GAP43 (11754022_s_at) / RFU A4GNT (11735810_at) / Fold change /veh A4GNT (11735810_at) / RFU PRB3 (11715151_x_at) / Fold change /veh PRB3 (11715151_x_at) / RFU TUBB4B (11761932_at) / Fold change /veh TUBB4B (11761932_at) / RFU CAPN14 (11732068_a_at) / Fold change /veh CAPN14 (11732068_a_at) / RFU TMCC2 (11721928_a_at) / Fold change /veh TMCC2 (11721928_a_at) / RFU IRGQ (11745062_a_at) / Fold change /veh IRGQ (11745062_a_at) / RFU FAM174B (11720279_a_at) / Fold change /veh FAM174B (11720279_a_at) / RFU TMPRSS4 (11748680_a_at) / Fold change /veh TMPRSS4 (11748680_a_at) / RFU FAM212B (11763350_a_at) / Fold change /veh FAM212B (11763350_a_at) / RFU PLEKHG5 (11743358_a_at) / Fold change /veh PLEKHG5 (11743358_a_at) / RFU ZSCAN30 (11745921_a_at) / Fold change /veh ZSCAN30 (11745921_a_at) / RFU CMKLR1 (11741424_a_at) / Fold change /veh CMKLR1 (11741424_a_at) / RFU LOC101060620 /// MAPK8IP1 (11723275_at) / Fold change /veh LOC101060620 /// MAPK8IP1 (11723275_at) / RFU SPTSSB (11747773_x_at) / Fold change /veh SPTSSB (11747773_x_at) / RFU PRSS12 (11739890_at) / Fold change /veh PRSS12 (11739890_at) / RFU BIN1 (11741810_x_at) / Fold change /veh BIN1 (11741810_x_at) / RFU WNT11 (11732464_a_at) / Fold change /veh WNT11 (11732464_a_at) / RFU C10orf10 (11716521_a_at) / Fold change /veh C10orf10 (11716521_a_at) / RFU C5orf56 (11738089_at) / Fold change /veh C5orf56 (11738089_at) / RFU CYB561 (11721691_x_at) / Fold change /veh CYB561 (11721691_x_at) / RFU ANKRD19P (11752326_a_at) / Fold change /veh ANKRD19P (11752326_a_at) / RFU OR2T12 /// OR2T33 /// OR2T8 (11738714_s_at) / Fold change /veh OR2T12 /// OR2T33 /// OR2T8 (11738714_s_at) / RFU VCAN (11748164_a_at) / Fold change /veh VCAN (11748164_a_at) / RFU JSRP1 (11732532_at) / Fold change /veh JSRP1 (11732532_at) / RFU KRTAP10-11 (11738290_x_at) / Fold change /veh KRTAP10-11 (11738290_x_at) / RFU MYO3A (11730013_a_at) / Fold change /veh MYO3A (11730013_a_at) / RFU EBF3 (11725865_a_at) / Fold change /veh EBF3 (11725865_a_at) / RFU CAMK2N1 (11719241_x_at) / Fold change /veh CAMK2N1 (11719241_x_at) / RFU C5orf56 (11738088_a_at) / Fold change /veh C5orf56 (11738088_a_at) / RFU OLFML3 (11715873_a_at) / Fold change /veh OLFML3 (11715873_a_at) / RFU LOC100653217 /// NTM (11731650_a_at) / Fold change /veh LOC100653217 /// NTM (11731650_a_at) / RFU MAPK11 (11762145_a_at) / Fold change /veh MAPK11 (11762145_a_at) / RFU FIZ1 (11724087_x_at) / Fold change /veh FIZ1 (11724087_x_at) / RFU OASL (11726364_x_at) / Fold change /veh OASL (11726364_x_at) / RFU SOX15 (11748057_x_at) / Fold change /veh SOX15 (11748057_x_at) / RFU CD79A (11719716_a_at) / Fold change /veh CD79A (11719716_a_at) / RFU HIST1H1D (11736915_at) / Fold change /veh HIST1H1D (11736915_at) / RFU CASKIN2 (11723855_a_at) / Fold change /veh CASKIN2 (11723855_a_at) / RFU LOC730098 (11760151_x_at) / Fold change /veh LOC730098 (11760151_x_at) / RFU OR4N2 (11742367_at) / Fold change /veh OR4N2 (11742367_at) / RFU PRRT2 (11749266_a_at) / Fold change /veh PRRT2 (11749266_a_at) / RFU SNX32 (11753110_a_at) / Fold change /veh SNX32 (11753110_a_at) / RFU CDHR5 (11726645_a_at) / Fold change /veh CDHR5 (11726645_a_at) / RFU RCAN1 (11760418_a_at) / Fold change /veh RCAN1 (11760418_a_at) / RFU FAM167A (11723789_a_at) / Fold change /veh FAM167A (11723789_a_at) / RFU FAM26E (11764081_at) / Fold change /veh FAM26E (11764081_at) / RFU ISYNA1 (11749810_s_at) / Fold change /veh ISYNA1 (11749810_s_at) / RFU ACY1 (11761880_at) / Fold change /veh ACY1 (11761880_at) / RFU 11764098_at / Fold change /veh 11764098_at / RFU SAMD14 (11745864_x_at) / Fold change /veh SAMD14 (11745864_x_at) / RFU NPB (11741838_a_at) / Fold change /veh NPB (11741838_a_at) / RFU TMPRSS6 (11731388_a_at) / Fold change /veh TMPRSS6 (11731388_a_at) / RFU KRTAP10-2 (11738614_at) / Fold change /veh KRTAP10-2 (11738614_at) / RFU ARHGAP8 /// PRR5-ARHGAP8 (11727945_x_at) / Fold change /veh ARHGAP8 /// PRR5-ARHGAP8 (11727945_x_at) / RFU KRTAP5-7 /// NADSYN1 (11734609_at) / Fold change /veh KRTAP5-7 /// NADSYN1 (11734609_at) / RFU RASL12 (11751679_a_at) / Fold change /veh RASL12 (11751679_a_at) / RFU CDKN2B (11736163_a_at) / Fold change /veh CDKN2B (11736163_a_at) / RFU PRF1 (11729649_at) / Fold change /veh PRF1 (11729649_at) / RFU, ZNF638 /// ZNF638-IT1 / Fold change vs veh, ZNF638 /// ZNF638-IT1 / RFU, PANK3 / Fold change vs veh, PANK3 / RFU, SH3YL1 / Fold change vs veh, SH3YL1 / RFU, ZEB2 / Fold change vs veh, ZEB2 / RFU, NRIP1 / Fold change vs veh, NRIP1 / RFU, PTTG1IP / Fold change vs veh, PTTG1IP / RFU, CAPN2 / Fold change vs veh, CAPN2 / RFU, MED14 / Fold change vs veh, MED14 / RFU, SNORA58 / Fold change vs veh, SNORA58 / RFU, C1orf63 / Fold change vs veh, C1orf63 / RFU, LRRFIP1 / Fold change vs veh, LRRFIP1 / RFU, NDUFAF7 / Fold change vs veh, NDUFAF7 / RFU, SLC12A2 / Fold change vs veh, SLC12A2 / RFU, IBTK / Fold change vs veh, IBTK / RFU, ESF1 / Fold change vs veh, ESF1 / Fold change vs veh, TMEM50B / RFU, TAOK1 / Fold change vs veh, TAOK1 / RFU, ACBD3 / Fold change vs veh, ACBD3 / RFU, TMA16 / Fold change vs veh, TMA16 / RFU, RWDD3 / Fold change vs veh, RWDD3 / RFU, BCAT1 / Fold change vs veh, BCAT1 / RFU, EDEM3 / Fold change vs veh, EDEM3 / RFU, TMEM33 / Fold change vs veh, TMEM33 / RFU, WDR75 / Fold change vs veh, WDR75 / RFU, AHCTF1 / Fold change vs veh, AHCTF1 / RFU, TFRC / Fold change vs veh, TFRC / RFU, ZDHHC17 / Fold change vs veh, ZDHHC17 / RFU, NOM1 / Fold change vs veh, NOM1 / RFU, ARL8B / Fold change vs veh, ARL8B / RFU, ZBTB11 / Fold change vs veh, ZBTB11 / RFU, TAMM41 / Fold change vs veh, TAMM41 / RFU, KIAA1704 /// LOC100996395 / Fold change vs veh, KIAA1704 /// LOC100996395 / RFU, ING1 / Fold change vs veh, ING1 / RFU, TRMT61B / Fold change vs veh, TRMT61B / RFU, FUBP3 / Fold change vs veh, FUBP3 / RFU, TP53 / Fold change vs veh, TP53 / RFU, TNKS2 / Fold change vs veh, TNKS2 / RFU, ZFP14 / Fold change vs veh, ZFP14 / RFU, ACTR2 / Fold change vs veh, ACTR2 / RFU, PPP3R1 / Fold change vs veh, PPP3R1 / RFU, PIK3R1 / Fold change vs veh, PIK3R1 / RFU, HNRNPA1 / Fold change vs veh, HNRNPA1 / RFU, RNF170 / Fold change vs veh, RNF170 / RFU, ZNF28 / Fold change vs veh, ZNF28 / RFU, RNGTT / Fold change vs veh, RNGTT / RFU, OGT / Fold change vs veh, OGT / RFU, BRD1 / Fold change vs veh, BRD1 / RFU, MARS / Fold change vs veh, MARS / RFU, ZNF655 / Fold change vs veh, ZNF655 / RFU, FAHD1 / Fold change vs veh, FAHD1 / RFU, BDP1 / Fold change vs veh, BDP1 / RFU, LRRCC1 / Fold change vs veh, LRRCC1 / RFU, ARID1A / Fold change vs veh, ARID1A / RFU, ZNF146 / Fold change vs veh, ZNF146 / RFU, ZNF330 / Fold change vs veh, ZNF330 / RFU, GPN3 / Fold change vs veh, GPN3 / RFU, C9orf123 / Fold change vs veh, C9orf123 / RFU, N4BP2L2 / Fold change vs veh, N4BP2L2 / RFU, ARFIP1 / Fold change vs veh, ARFIP1 / RFU, FAM179B / Fold change vs veh, FAM179B / RFU, BCL10 / Fold change vs veh, BCL10 / RFU, UHRF1BP1L / Fold change vs veh, UHRF1BP1L / RFU, BET1 / Fold change vs veh, BET1 / RFU, CNOT2 / Fold change vs veh, CNOT2 / RFU, ZNF268 / Fold change vs veh, ZNF268 / Fold change vs veh, ZNF507 / RFU, DGCR2 / Fold change vs veh, DGCR2 / RFU, WDSUB1 / Fold change vs veh, WDSUB1 / Fold change vs veh, HSP90B1 /// MIR3652 / RFU, ADSS / Fold change vs veh, ADSS / RFU, GK / Fold change vs veh, GK / RFU, ZNF148 / Fold change vs veh, ZNF148 / RFU, TAF9 / Fold change vs veh, TAF9 / RFU, SLC1A5 / Fold change vs veh, SLC1A5 / RFU, SLMO2 / Fold change vs veh, SLMO2 / RFU, ABCC4 / Fold change vs veh, ABCC4 / RFU, LOC101060439 /// RAP1B / Fold change vs veh, LOC101060439 /// RAP1B / RFU, RFX7 / Fold change vs veh, RFX7 / RFU, GTPBP10 / Fold change vs veh, GTPBP10 / RFU, CNEP1R1 / Fold change vs veh, CNEP1R1 / RFU, BIVM-ERCC5 /// ERCC5 / Fold change vs veh, BIVM-ERCC5 /// ERCC5 / RFU, ILF3 / Fold change vs veh, ILF3 / RFU 11762660_at / Fold change /veh 11762660_at / RFU VCAN (11757783_s_at) / Fold change /veh VCAN (11757783_s_at) / RFU DDX43 (11728927_at) / Fold change /veh DDX43 (11728927_at) / RFU KRT8 (11758188_x_at) / Fold change /veh KRT8 (11758188_x_at) / RFU NKD1 (11759106_at) / Fold change /veh NKD1 (11759106_at) / RFU SRD5A1 (11742802_a_at) / Fold change /veh SRD5A1 (11742802_a_at) / RFU TPSAB1 /// TPSB2 (11721975_s_at) / Fold change /veh TPSAB1 /// TPSB2 (11721975_s_at) / RFU GSTM3 (11746129_a_at) / Fold change /veh GSTM3 (11746129_a_at) / RFU IL23R (11737362_x_at) / Fold change /veh IL23R (11737362_x_at) / RFU TMEM51 (11727254_a_at) / Fold change /veh TMEM51 (11727254_a_at) / RFU PIWIL2 (11732686_x_at) / Fold change /veh PIWIL2 (11732686_x_at) / RFU ORM1 (11744905_x_at) / Fold change /veh ORM1 (11744905_x_at) / RFU CCDC152 (11743942_at) / Fold change /veh CCDC152 (11743942_at) / RFU ECM1 (11717891_a_at) / Fold change /veh ECM1 (11717891_a_at) / RFU IL23R (11748794_a_at) / Fold change /veh IL23R (11748794_a_at) / RFU TNFAIP8L3 (11732012_x_at) / Fold change /veh TNFAIP8L3 (11732012_x_at) / RFU MBOAT4 (11741988_at) / Fold change /veh MBOAT4 (11741988_at) / RFU 11764193_at / Fold change /veh 11764193_at / RFU TMEM53 (11763286_at) / Fold change /veh TMEM53 (11763286_at) / RFU MAGEB2 (11727129_at) / Fold change /veh MAGEB2 (11727129_at) / RFU TMEM200A (11744735_a_at) / Fold change /veh TMEM200A (11744735_a_at) / RFU CCDC152 (11751479_a_at) / Fold change /veh CCDC152 (11751479_a_at) / RFU FAM211A (11726209_a_at) / Fold change /veh FAM211A (11726209_a_at) / RFU RGS16 (11746705_a_at) / Fold change /veh RGS16 (11746705_a_at) / RFU VCAN (11755009_s_at) / Fold change /veh VCAN (11755009_s_at) / RFU RHOB (11743442_s_at) / Fold change /veh RHOB (11743442_s_at) / RFU RGS16 (11720943_a_at) / Fold change /veh RGS16 (11720943_a_at) / RFU RGS16 (11720944_at) / Fold change /veh RGS16 (11720944_at) / RFU, VPS4B / Fold change vs veh, VPS4B / RFU, CREB1 / Fold change vs veh, CREB1 / RFU, DNAJC13 / Fold change vs veh, DNAJC13 / RFU, GNAQ / Fold change vs veh, GNAQ / RFU, CDK5R1 / Fold change vs veh, CDK5R1 / RFU, ZRANB3 / Fold change vs veh, ZRANB3 / RFU, CUL4A / Fold change vs veh, CUL4A / RFU, CCNY / Fold change vs veh, CCNY / RFU, UFL1 / Fold change vs veh, UFL1 / RFU, COG3 / Fold change vs veh, COG3 / RFU, DIAPH2 / Fold change vs veh, DIAPH2 / RFU, SKA2 / Fold change vs veh, SKA2 / RFU, AFF3 / Fold change vs veh, AFF3 / RFU, LMF1 / Fold change vs veh, LMF1 / RFU, IPO11 / Fold change vs veh, IPO11 / RFU, DFFB / Fold change vs veh, DFFB / RFU, FOXP1 / Fold change vs veh, FOXP1 / RFU, CARD8 / Fold change vs veh, CARD8 / RFU, STRN3 / Fold change vs veh, STRN3 / RFU, ADK / Fold change vs veh, ADK / RFU, RASSF2 / Fold change vs veh, RASSF2 / RFU, WIPF1 / Fold change vs veh, WIPF1 / RFU, LARP1B / Fold change vs veh, LARP1B / RFU, RASA1 / Fold change vs veh, RASA1 / RFU, RB1 / Fold change vs veh, RB1 / RFU, PPFIA1 / Fold change vs veh, PPFIA1 / RFU, MAT2A / Fold change vs veh, MAT2A / RFU, CCT5 / Fold change vs veh, CCT5 / RFU, WDR92 / Fold change vs veh, WDR92 / RFU, CUX1 / Fold change vs veh, CUX1 / RFU, TTC7A / Fold change vs veh, TTC7A / RFU, TMEM135 / Fold change vs veh, TMEM135 / RFU, DEPTOR / Fold change vs veh, DEPTOR / RFU, CPM / Fold change vs veh, CPM / RFU, DNAJB6 / Fold change vs veh, DNAJB6 / RFU, CACNA2D3 / Fold change vs veh, CACNA2D3 / RFU, DTX4 / Fold change vs veh, DTX4 / RFU, TFCP2 / Fold change vs veh, TFCP2 / RFU, GMCL1 /// GMCL1P1 / Fold change vs veh, GMCL1 /// GMCL1P1 / RFU, AEBP2 / Fold change vs veh, AEBP2 / RFU, SNHG1 /// SNORD22 /// SNORD25 /// SNORD26 /// SNORD27 /// SNORD28 /// SNORD29 /// SNORD31 / Fold change vs veh, SNHG1 /// SNORD22 /// SNORD25 /// SNORD26 /// SNORD27 /// SNORD28 /// SNORD29 /// SNORD31 / Fold change (Aza/veh), C12orf56 (ProbeSet 11735607_a_at) / Fold change (ACY-1035/veh), C12orf56 (ProbeSet 11735607_a_at) / Fold change (Aza/veh), FGFR1OP (ProbeSet 11751329_s_at) / Fold change (ACY-1035/veh), FGFR1OP (ProbeSet 11751329_s_at) / Fold change (Aza/veh), VPS36 (ProbeSet 11739960_a_at) / Fold change (ACY-1035/veh), VPS36 (ProbeSet 11739960_a_at) / RFU SYPL1 (11715823_x_at) / Fold change /veh SYPL1 (11715823_x_at) / RFU IGFBP7 (11715501_s_at) / Fold change /veh IGFBP7 (11715501_s_at) / RFU REEP3 (11722064_at) / Fold change /veh REEP3 (11722064_at) / RFU IGLL1 (11728026_x_at) / Fold change /veh IGLL1 (11728026_x_at): dose or concentration left out as unconfirmed
Details: ProbeSet 11743567_s_at; LIST B

SMILES: Nc1ccc(-c2cccs2)cc1NC(=O)c1ccc2c(c1)cc(C1CC1)n2CCN1CCOCC1 [ACY-1035]
- RFU, ACBD3: 241.56 RFU
